One assay deals with T1, AQ STING (G230A-R293Q) (Homo sapiens, UniProt Q86WV6, G230A/H232R/R293Q).
T1 construct: truncated human WT STING or AQ STING (amino acid residues 140-343); 8xHis (N, cleaved yes); SUMO (N, cleaved yes); made in house; host or cells: E. coli Rosetta-gami B (DE3)
Put plainly: Differential Scanning Fluorimetry with AQ STING. Format: binding. As to conditions: thermal shift vs STING apoprotein; 150 μM CDN; 0.1 mg/ml truncated human AQ STING; SYPRO Orange; read-out: DSF ΔTm (° C.) AQ STING. Background: In DSF a fluorescence change marks the thermal transition of the protein.

Assay [1] deals with T2, WT STING (Homo sapiens, UniProt Q86WV6, H232R). In words: Differential Scanning Fluorimetry with WT STING. Format: binding. Further details: truncated human WT STING or AQ STING (amino acid residues 140-343); 8xHis (N, cleaved yes); SUMO (N, cleaved yes); made in house; host or cells: E. coli Rosetta-gami B (DE3). The settings on record: thermal shift vs STING apoprotein; 150 μM CDN; 0.1 mg/ml truncated human WT STING; SYPRO Orange; read-out: DSF ΔTm (° C.) WT STING.
Target sequence in this assay (Q86WV6 140-343 H232R): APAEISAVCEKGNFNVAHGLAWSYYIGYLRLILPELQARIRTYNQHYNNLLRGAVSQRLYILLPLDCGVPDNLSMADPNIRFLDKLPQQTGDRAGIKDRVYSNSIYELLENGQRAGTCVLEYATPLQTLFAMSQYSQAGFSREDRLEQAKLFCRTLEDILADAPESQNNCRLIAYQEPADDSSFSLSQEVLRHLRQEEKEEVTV

Assay [2] concerns the target T2, WT STING. Put plainly: Digitonin assay using 293T wtSTING-FL reporter cells. Format: cell-based. The settings on record: 293T wtSTING-FL cells; 30 minutes in Digitonin buffer, then 5 hours; ISRE firefly luciferase reporter; 8-point dose-response curve; read-out: Digitonin assay EC50 (μmol · l^−1) WT STING.
Target sequence in this assay (Q86WV6 whole entry H232R, the tested form may be a part): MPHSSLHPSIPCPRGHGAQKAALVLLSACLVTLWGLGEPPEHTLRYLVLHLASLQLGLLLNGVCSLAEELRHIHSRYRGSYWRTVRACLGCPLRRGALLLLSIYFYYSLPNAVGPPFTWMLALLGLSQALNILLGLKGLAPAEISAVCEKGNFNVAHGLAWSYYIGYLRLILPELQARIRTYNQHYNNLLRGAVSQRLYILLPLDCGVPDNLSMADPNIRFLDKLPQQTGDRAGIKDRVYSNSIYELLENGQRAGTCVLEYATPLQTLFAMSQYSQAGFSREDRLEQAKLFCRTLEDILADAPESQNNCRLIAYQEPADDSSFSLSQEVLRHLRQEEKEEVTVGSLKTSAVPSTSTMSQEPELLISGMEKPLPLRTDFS

T1 sequence (Q86WV6 140-343 G230A/H232R/R293Q): as the sequence (Q86WV6 140-343 H232R) above, with G91A, R154Q counted along it

Consider `Nc1nc2c(nnn2[C@@H]2O[C@@H]3OCP(=O)(O)O[C@H]4[C@@H](O)[C@H](n5cnc6c(N)ncnc65)O[C@@H]4COP(=O)(O)O[C@@H]2[C@@H]3O)c(=O)[nH]1` [Compound 57, (1R,6R,8R,9R,10S,15R,17R,18S)-17-{5-amino-7-oxo-3H,6H,7H-[1,2,3]triazolo[4,5-d]pyrimidin-3-yl}-8-(6-amino-9H-purin-9-yl)-3,9,12,18-tetrahydroxy-2,4,7,11,14,16-hexaoxa-3λ^5,12λ^5-diphosphatricyclo[13.2.1.0^6,10]octadecane-3,12-dione], for which the ΔTm – broadly, the change in melting temperature against a reference sample – at 150 µM on AQ STING (G230A-R293Q) was found to be 22.2 °C; at WT STING [1] it was 14.8 °C. Further, at WT STING [2], the EC50 – broadly, the midpoint of the concentration-response curve – was 20 nM.

For the compound `NC(=O)c1ncn([C@@H]2O[C@@H]3COP(=O)(O)O[C@@H]4[C@H](O)[C@@H](OCP(=O)(O)O[C@H]3[C@H]2O)O[C@H]4n2cnc3c(=O)[nH]c(N)nc32)c1N` [Compound 58, 5-amino-1-[(1R,6R,8R,9R,10S,15R,17R,18S)-17-(2-amino-6-oxo-6,9-dihydro-1H-purin-9-yl)-3,9,12,18-tetrahydroxy-3,12-dioxo-2,4,7,11,14,16-hexaoxa-3λ^5,12λ^5-diphosphatricyclo[13.2.1.0^6,10]octadecan-8-yl]-1H-imidazole-4-carboxamide], the ΔTm at 150 µM amounted to 11.9 °C at AQ STING (G230A-R293Q) and 8.3 °C at WT STING [1]. Besides, the EC50 on WT STING [2] turned out to be 120 nM.

Take `Nc1ncnc2c1ncn2[C@@H]1O[C@@H]2OCP(=O)(O)O[C@@H]3[C@H](O)[C@@H](COP(=O)(O)O[C@H]2[C@H]1O)C[C@H]3n1cnc2c(=O)[nH]cnc21` [Compound 59, (1S,6R,8R,9R,10S,15R,17R,18R)-8-(6-amino-9H-purin-9-yl)-3,9,12,18-tetrahydroxy-17-(6-oxo-6,9-dihydro-1H-purin-9-yl)-2,5,7,11,13-pentaoxa-3λ^5,12λ^5-diphosphatricyclo[13.2.1.0^6,10]octadecane-3,12-dione]: the ΔTm at 150 µM on AQ STING (G230A-R293Q) was found to be 10 °C; on WT STING [1], 1.8 °C. The EC50 on WT STING [2] was determined as 1100 nM.

For the compound `Nc1nc2c(ncn2[C@@H]2O[C@@H]3OCP(=O)(O)O[C@H]4[C@@H](O)[C@H](n5cnc6c(N)ncnc65)O[C@@H]4COP(=O)(O)O[C@@H]2[C@@H]3F)c(=O)[nH]1` [Compound 60, (1S,6R,8R,9R,10S,15R,17R,18S)-17-(2-amino-6-oxo-6,9-dihydro-1H-purin-9-yl)-8-(6-amino-9H-purin-9-yl)-18-fluoro-3,9,12-trihydroxy-2,4,7,11,14,16-hexaoxa-3λ^5,12λ^5-diphosphatricyclo[13.2.1.0^6,10]octadecane-3,12-dione], the values for the ΔTm at 150 µM at AQ STING (G230A-R293Q) and at WT STING [1] were 24 °C and 18.1 °C, respectively. The EC50 at WT STING [2] stood at 12 nM.

For the compound `Nc1nc2c(nnn2[C@@H]2O[C@@H]3OCP(=O)(O)O[C@@H]4[C@@H](OCP(=O)(O)O[C@@H]2[C@@H]3O)O[C@@H](n2cnc3c(N)ncnc32)[C@@H]4O)c(=O)[nH]1` [Compound 61, (1R,6R,8R,9R,10S,15R,17R,18S)-17-{5-amino-7-oxo-3H,6H,7H-[1,2,3]triazolo[4,5-d]pyrimidin-3-yl}-8-(6-amino-9H-purin-9-yl)-3,9,12,18-tetrahydroxy-2,5,7,11,14,16-hexaoxa-3λ^5,12λ^5-diphosphatricyclo[13.2.1.0^6,10]octadecane-3,12-dione], the ΔTm at 150 µM on AQ STING (G230A-R293Q) stood at 17.6 °C; on WT STING [1], 10 °C. For the same compound, the EC50 at WT STING [2] came to 27 nM.

`Nc1nc2c(nnn2[C@@H]2O[C@@H]3OCP(=O)(O)O[C@H]4[C@H](O)[C@H](n5cnc6c(N)ncnc65)O[C@@H]4COP(=O)(O)O[C@@H]2[C@@H]3O)c(=O)[nH]1` [Compound 62, (1R,6R,8R,9S,10S,15R,17R,18S)-17-{5-amino-7-oxo-3H,6H,7H-[1,2,3]triazolo[4,5-d]pyrimidin-3-yl}-8-(6-amino-9H-purin-9-yl)-3,9,12,18-tetrahydroxy-2,4,7,11,14,16-hexaoxa-3λ^5,12λ^5-diphosphatricyclo[13.2.1.0^6,10]octadecane-3,12-dione]: the ΔTm at 150 µM at AQ STING (G230A-R293Q) was 22.9 °C; at WT STING [1], 16 °C. Also, the EC50 on WT STING [2] worked out at 50 nM.

Consider `Nc1nc2c(nnn2[C@@H]2O[C@@H]3OCP(=O)(O)OC4C(F)[C@H](n5cnc6c(N)ncnc65)O[C@@H]4COP(=O)(O)OC2C3O)c(=O)[nH]1` (stereo partly drawn) [Compound 63, (6R,8R,15R,17R)-17-{5-amino-7-oxo-3H,6H,7H-[1,2,3]triazolo[4,5-d]pyrimidin-3-yl}-8-(6-amino-9H-purin-9-yl)-9-fluoro-3,12,18-trihydroxy-2,4,7,11,14,16-hexaoxa-3λ^5,12λ^5-diphosphatricyclo[13.2.1.0^6,10]octadecane-3,12-dione], for which the ΔTm at 150 µM on AQ STING (G230A-R293Q) was found to be 26.4 °C; on WT STING [1] it was 19.5 °C. The EC50 at WT STING [2] was found to be 8 nM.

For the origin of these results see patent US11203610B2, “2′3′ cyclic dinucleotides with phosphonate bond activating the sting adaptor protein” (INSTITUTE OF ORGANIC CHEMISTRY AND BIOCHEMISTRY ASCR, V.V.I., priority 2017, dated 2021).
